Columns and labels:
[1] = system: B16F10 murine melanoma cells; assay: Murine melanoma tumor model (B16F10 in C57BL/6 mice); assay type: in vivo
Description: Mice were injected with 1×10^5 B16F10 murine melanoma cells murine subcutaneously on the left flank. Once tumors become palpable (approximately 5 days), mice were randomly allocated to receive treatment with either: 20% polyethylene glycol (PEG) in 5% […] (vehicle control for the disclosed HIF-2α stabilizer) and PBS (vehicle control for GM-CSF), 20% PEG and GM-CSF (100 ng per mouse in a 50 μL volume), the disclosed HIF-2α stabilizer (17.5 mg/kg in a 100 μL volume) and PBS, or the disclosed HIF-2α stabilizer and GM-CSF (same doses). The PBS and GM-CSF were administered intratumorally, while the 20% PEG and the disclosed HIF-2α stabilizer were administered intraperitoneally. Mice were treated 3 times per week until tumors reached a size of 20 mm in any dimension (approximately 2.5 weeks), at which point mice were euthanized, in accordance with institutional policy. Tumor diameters were measured 3 times per week with calipers, and tumor volumes were calculated as follows: Tumor volume=0.5×[(large diameter)×(small diameter)^2].
6-8-week-old C57BL/6 mice were injected with 1×10^5 B16F10 murine melanoma cells murine subcutaneously on the left flank. Once tumors become palpable (approximately 5 days), mice were randomly allocated to receive treatment with either: 20% PEG-400 in 5% sucrose (vehicle for disclosed HIF-2α stabilizer) and PBS (vehicle for GM-CSF), 20% PEG-400 and GM-CSF (100 ng per mouse in a 50 μL volume), disclosed HIF-2α stabilizer (17.5 mg/kg mouse weight in a 100 μL volume) and PBS, or the disclosed HIF-2α stabilizer and GM-CSF (same concentrations). The disclosed HIF-2α stabilizer (or the vehicle control) was administered intraperitoneally, while GM-CSF (or the vehicle control) was administered intratumorally. Mice were treated […] 3 times per week until tumors reached a size of 20 mm in any dimension (approximately 2.5 weeks), at which point mice were be euthanized, in accordance with institutional policy. Tumor diameters were measured 3 times per week with calipers, and tumor volumes will be calculated as follows: Tumor volume=0.5×[(large diameter)×(small diameter)^2]. For experiments analyzing the effect of neutralizing sVEGFR-1 in combination with disclosed HIF-2α stabilizer treatment, mice were treated intraperitoneally 3×/week with either disclosed HIF-2α stabilizer or vehicle control, and intratumorally with either 4 μg anti-VEGFR-1 neutralizing antibody (R&D Systems) or 4 μg polyclonal goat IgG isotype control (Santa Cruz Biotechnology) in a 50 μL volume. All protocols were approved by the Ohio State University Animal Care and Use Committee, and mice were treated in accordance with institutional guidelines for animal care.
The ANOVA test was used to compare independent measurements between multiple treatment groups. The data was log-transformed to normalize the variance across groups. P-values were adjusted using the Holm's procedure to conserve the type I error at 0.05 due to the multiple comparisons. For tumor growth data, changes in tumor volume over time were assessed via a longitudinal model. Tumor values were log-transformed, and estimated slopes (changes in tumor volume over time) were calculated with 95% confidence intervals. Estimated differences in tumor volume were calculated by a random-effects regression of the longitudinal data. For all analyses, p≦0.05 was considered statistically significant.
6-8-week-old C57BL/6 mice or SCID mice were injected with 1×10^5 B16F10 murine melanoma cells or 1×10^6 A375 human melanoma cells, respectively, subcutaneously on the left flank. […]

sVEGFR-1 = sVEGFR-1 production by human peripheral blood monocytes (ELISA, real-time PCR); assay type: cell-based; conditions: monocytes stimulated with GM-CSF alone; FIG. 11D
Description: (§1) Human peripheral blood mononuclear cells (PBMCs) were isolated from fresh peripheral blood leukocyte source packs (American Red Cross, Columbus Ohio) by density gradient centrifugation over Lymphocyte Separation Medium (Cellgro). Monocytes were purified from total PBMCs by layering over FBS. Monocytes were cultured in endotoxin-free RPMI-1640 supplemented with 1% fetal bovine serum (FBS), 0.1% human serum albumin (HSA), and 10 μg/mL of the endotoxin inhibitor polymyxin B. In some experiments, freshly isolated monocytes were differentiated into macrophages by three-day culture in media containing 10% FBS, 1% PSA (penicillin G sodium, streptomycin sulfate, and amphotericin B), and 20 ng/mL M-CSF. Macrophages were serum-starved for 2 hours prior to stimulation. Monocytes or monocyte-derived macrophages were treated for 24 hours with 10 ng/mL GM-CSF, 10 μM disclosed HIF-2α stabilizer, or an equivalent volume of the vehicle controls (PBS or DMSO, respectively). Cell-free culture supematants were harvested and analyzed for VEGF or sVEGFR-1 by ELISA (R&D Systems).
(§2) Human monocytes were left untreated or were stimulated with 100 ng/mL GM-CSF at normoxia or at 0.5% O2. At various time-points, cells were harvested in Trizol reagent (Invitrogen) and RNA was extracted in chloroform and then purified using the RNeasy Minikit (Qiagen). In murine studies, organs harvested at the time of euthanasia were flash-frozen in liquid nitrogen, pulverized in liquid nitrogen, and then dissolved in Trizol. cDNA was generated from 1 μg of RNA using the Superscript First Strand Synthesis System (Invitrogen) and used for real-time PCR using previously described primers and SYBR Green PCR Master Mix (Applied Biosciences), according to the manufacturer's instructions. Data were analyzed according to the comparative threshold method and normalized against the β-actin internal control transcript. Results are semi-quantitative and represent the fold difference in transcript levels in a particular sample as compared with levels in untreated cells from the same donor.

VEGF = VEGF production by human peripheral blood monocytes (ELISA, real-time PCR); assay type: cell-based; conditions: FIG. 11C
Description: as §1
as §2, with “donor. […]” for “donor.”

VEGF mRNA = assay: Real-time PCR of VEGF mRNA within B16F10 tumors; assay type: in vivo, mice; conditions: p=0.490, FIG. 13B
Description: as §2
6-8-week-old C57BL/6 mice were injected with 1×10^5 B16F10 murine melanoma cells murine subcutaneously on the left flank. […] Tumor diameters were measured 3 times per week with calipers, and tumor volumes will be calculated as follows: Tumor volume=0.5×[(large diameter)×(small diameter)^2]. […]

[2] = system: A375 human melanoma cells; assay: A375 human melanoma tumors in SCID mice; assay type: in vivo; conditions: at the time of sacrifice; stabilizer 17 mg/kg, docetaxel 1 mg/kg, IP 3 times per week
Description: 6-8-week-old C57BL/6 mice or SCID mice were injected with 1×10^5 B16F10 murine melanoma cells or 1×10^6 A375 human melanoma cells, respectively, subcutaneously on the left flank. […] Tumor diameters were measured 3 times per week with calipers, and tumor volumes will be calculated as follows: Tumor volume=0.5×[(large diameter)×(small diameter)^2].
In the study, immunocompromised SCID mice were inoculated with A375 human melanoma tumors subcutaneously. Starting when the tumors became palpable (7 days after injection), mice were treated with either the cytotoxic chemotherapy docetaxel or with the disclosed HIF-2α stabilizer. The disclosed HIF-2α stabilizer was given at a dose of 17 mg/kg, and the docetaxel was given at 1 mg/kg. Both drugs were given IP 3 times per week. […] At the time of sacrifice, the tumors in the mice that received only the disclosed HIF-2α stabilizer were approximately 78% of the size of the control tumors, the tumors of the mice that received only chemotherapy were approximately 50% of the size of the control tumors, and the tumors of the mice that received both drugs were approximately 16% of the size of the control tumors.

Compound | tumor volume reduction, GM-CSF given I.T. vs I.P. ([1]; B16F10 melanoma, stabilizer 17 mg/kg I.P. in all cases, no control group, FIG. 4) | tumor growth / tumor volume ([1]; B16F10 melanoma, stabilizer 17 mg/kg I.P., GM-CSF I.T., vs PBS control, FIG. 3) | average tumor volumes vs vehicle controls ([1]; day 16 of treatment, 3×/week, GM-CSF 100 ng/mouse intratumoral, stabilizer 17.5 mg/kg intraperitoneal, each p<0.001) | monocyte production of sVEGFR-1 (sVEGFR-1) | VEGF protein in supernatants (free VEGF ELISA) (VEGF; GM-CSF-stimulated monocytes, VEGF neutralized by sVEGFR-1) | VEGF transcript levels (VEGF; monocytes stimulated with GM-CSF alone) | levels of intratumoral VEGF vs vehicle control-treated mice (VEGF mRNA) | tumor size as % of the size of the control tumors [2]
GM-CSF: granulocyte-macrophage colony-stimulating factor | greater reduction of tumor volume | reduction in tumor volume | significantly smaller | induced | undetectable | increased VEGF production | failed to increase | 
CC(=O)O[C@@]12CO[C@@H]1C[C@H](O)[C@@]1(C)C(=O)[C@H](O)C3=C(C)[C@@H](OC(=O)[C@H](O)[C@@H](NC(=O)OC(C)(C)C)c4ccccc4)C[C@@](O)([C@@H](OC(=O)c4ccccc4)[C@H]21)C3(C)C [docetaxel, reference compound] |  |  |  |  |  |  |  | approximately 50%

Reference: US20170105981A1, “METHODS FOR STABILIZING HYPOXIA INDUCIBLE FACTOR-2 ALPHA AS A METHOD FOR TREATING CANCER” (The Ohio State Innovation Foundation, priority 2011, published 2017)
